In ChEMBL document CHEMBL5665443, “Enzyme Inhibitor Single Concentration assay results for EUbOPEN Chemogenomics Library” (2024):

Tests used:
[1] = biological target: DNA-3-methyladenine glycosylase (Homo sapiens) (UniProt P29372); details: Compound Concentration 10.0 uM, Hit No;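 note: enzyme assay where MPG cuts a quenched duplex DNA oligonucleotide probe, paired with APE1 for strand incision and turnover, read as fluorescence at 594 nm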
Description: Inhibition of MPG by quantifying inhibition of MPG-mediated cleavage and dissociation of quenched duplex DNA oligonucleotides, measured as fluorescence at 594 nm. To generate a functional strand incision and increase turn-over this assay is coupled to APE1.

[2] = biological target: T1, Endonuclease III-like protein 1 (Homo sapiens) (UniProt P78549); details: Compound Concentration 10.0 uM, Hit No;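 note: enzyme assay tracking NTHL1 cutting and release of a quenched double-stranded DNA oligo substrate, read as fluorescence at 594 nm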
T1 sequence (whole entry): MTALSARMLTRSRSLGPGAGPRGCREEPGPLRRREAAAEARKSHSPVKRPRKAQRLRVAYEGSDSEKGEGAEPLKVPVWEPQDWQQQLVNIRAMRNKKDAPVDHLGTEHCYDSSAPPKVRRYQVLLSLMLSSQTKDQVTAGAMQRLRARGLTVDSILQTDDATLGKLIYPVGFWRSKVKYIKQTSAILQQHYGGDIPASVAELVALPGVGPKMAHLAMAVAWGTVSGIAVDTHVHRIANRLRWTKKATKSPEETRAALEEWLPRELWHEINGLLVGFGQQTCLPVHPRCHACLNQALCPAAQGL
Description: Inhibition of NTHL1 by quantifying inhibition of NTHL1-mediated cleavage and dissociation of quenched duplex DNA oligonucleotides, measured as fluorescence at 594 nm.

[3] = biological target: T2, Adenine DNA glycosylase (Homo sapiens) (UniProt Q9UIF7); details: Compound Concentration 10.0 uM, Hit No;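 note: human MUTYH activity read as 594 nm fluorescence from cleavage and release of a quenched DNA duplex, coupled with APE1 for strand incision, lower signal meaning inhibition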
T2 sequence (whole entry): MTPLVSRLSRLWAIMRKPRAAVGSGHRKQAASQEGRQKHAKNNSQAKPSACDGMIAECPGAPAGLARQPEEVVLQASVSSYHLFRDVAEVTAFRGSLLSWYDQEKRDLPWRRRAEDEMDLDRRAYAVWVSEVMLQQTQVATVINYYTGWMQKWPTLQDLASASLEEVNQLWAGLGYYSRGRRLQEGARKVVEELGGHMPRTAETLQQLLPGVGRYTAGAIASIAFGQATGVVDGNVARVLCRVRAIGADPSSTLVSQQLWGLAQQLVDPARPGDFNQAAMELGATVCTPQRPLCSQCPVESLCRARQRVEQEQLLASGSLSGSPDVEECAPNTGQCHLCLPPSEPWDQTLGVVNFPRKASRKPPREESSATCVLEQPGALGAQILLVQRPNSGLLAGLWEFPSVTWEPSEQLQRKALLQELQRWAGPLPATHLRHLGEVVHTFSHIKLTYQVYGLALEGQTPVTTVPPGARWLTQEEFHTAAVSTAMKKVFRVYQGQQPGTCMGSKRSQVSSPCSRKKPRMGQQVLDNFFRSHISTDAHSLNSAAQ
Description: Inhibition of MUTYH by quantifying inhibition of MUTYH-mediated cleavage and dissociation of quenched duplex DNA oligonucleotides, measured as fluorescence at 594 nm. To generate a functional strand incision and increase turn-over this assay is coupled to APE1.

[4] = biological target: T3, Single-strand selective monofunctional uracil DNA glycosylase (Homo sapiens) (UniProt Q53HV7); details: Compound Concentration 10.0 uM, Hit No;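 note: enzymatic SMUG1 assay coupled with APE1, reading fluorescence at 594 nm released when a quenched double-stranded DNA oligonucleotide substrate is cleaved and separated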
T3 sequence (whole entry): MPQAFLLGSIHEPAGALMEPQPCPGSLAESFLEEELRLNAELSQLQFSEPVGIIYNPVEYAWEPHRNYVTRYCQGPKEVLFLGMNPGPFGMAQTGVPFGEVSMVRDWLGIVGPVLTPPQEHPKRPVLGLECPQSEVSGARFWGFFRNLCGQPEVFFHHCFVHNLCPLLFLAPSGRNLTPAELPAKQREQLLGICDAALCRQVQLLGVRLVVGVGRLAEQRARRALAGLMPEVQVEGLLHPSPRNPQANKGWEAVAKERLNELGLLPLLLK
Description: Inhibition of SMUG1 by quantifying inhibition of SMUG1-mediated cleavage and dissociation of quenched duplex DNA oligonucleotides, measured as fluorescence at 594 nm. To generate a functional strand incision and increase turn-over this assay is coupled to APE1.

[5] = biological target: T4, Endonuclease 8-like 2 (Homo sapiens) (UniProt Q969S2); details: Compound Concentration 10.0 uM, Hit No;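 note: fluorescence at 594 nm reports NEIL2 cutting and release of a quenched double-stranded DNA oligo substrate, reduced signal read as inhibition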
T4 sequence (whole entry): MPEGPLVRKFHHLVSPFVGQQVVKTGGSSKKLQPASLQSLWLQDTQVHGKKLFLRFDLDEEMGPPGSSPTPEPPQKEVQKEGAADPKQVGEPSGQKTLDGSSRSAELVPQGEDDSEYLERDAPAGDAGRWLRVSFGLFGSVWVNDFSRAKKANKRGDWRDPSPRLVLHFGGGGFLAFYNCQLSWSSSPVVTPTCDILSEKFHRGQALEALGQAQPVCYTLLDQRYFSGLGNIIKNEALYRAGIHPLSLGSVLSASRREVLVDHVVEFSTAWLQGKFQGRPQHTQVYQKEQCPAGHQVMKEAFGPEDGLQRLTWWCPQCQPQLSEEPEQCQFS
Description: Inhibition of NEIL2 by quantifying inhibition of NEIL2-mediated cleavage and dissociation of quenched duplex DNA oligonucleotides, measured as fluorescence at 594 nm.

[6] = biological target: Endonuclease 8-like 1 (Homo sapiens) (UniProt Q96FI4); details: Compound Concentration 10.0 uM, Hit No;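 note: fluorescence at 594 nm from quenched duplex DNA oligonucleotides released by NEIL1 cleavage and strand separation, reported as reduction of this enzyme activity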
Description: Inhibition of NEIL1 by quantifying inhibition of NEIL1-mediated cleavage and dissociation of quenched duplex DNA oligonucleotides, measured as fluorescence at 594 nm.

[7] = biological target: Uracil-DNA glycosylase (Homo sapiens) (UniProt P13051); details: Compound Concentration 10.0 uM, Hit No;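 note: UNG excision on a quenched double-stranded DNA oligo probe, with APE1 added for strand incision and turnover, read as fluorescence at 594 nm as strands separate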
Description: Inhibition of UNG by quantifying inhibition of UNG-mediated cleavage and dissociation of quenched duplex DNA oligonucleotides, measured as fluorescence at 594 nm. To generate a functional strand incision and increase turn-over this assay is coupled to APE1.

[8] = biological target: Methyl-CpG-binding domain protein 4 (Homo sapiens) (UniProt O95243); details: Compound Concentration 10.0 uM;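 note: MBD4 activity read as fluorescence at 594 nm from cleavage and release of a quenched duplex DNA oligonucleotide, with APE1 coupled to incise the strand and raise turnover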
Description: Inhibition of MBD4 by quantifying inhibition of MBD4-mediated cleavage and dissociation of quenched duplex DNA oligonucleotides, measured as fluorescence at 594 nm. To generate a functional strand incision and increase turn-over this assay is coupled to APE1.

[9] = biological target: G/T mismatch-specific thymine DNA glycosylase (Homo sapiens) (UniProt Q13569); details: Compound Concentration 10.0 uM, Hit No;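 note: human TDG cleavage of quenched duplex DNA oligonucleotides coupled to APE1, strand release read as fluorescence at 594 nm, inhibition of TDG activity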
Description: Inhibition of TDG by quantifying inhibition of TDG-mediated cleavage and dissociation of quenched duplex DNA oligonucleotides, measured as fluorescence at 594 nm. To generate a functional strand incision and increase turn-over this assay is coupled to APE1.

[10] = biological target: N-glycosylase/DNA lyase (Homo sapiens) (UniProt O15527); details: Compound Concentration 10.0 uM, Hit No;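 note: OGG1 cleavage of a quenched duplex DNA oligonucleotide, coupled to APE1 for strand incision, read as fluorescence at 594 nm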
N-glycosylase/DNA lyase (Homo sapiens), sequence (O15527 whole entry): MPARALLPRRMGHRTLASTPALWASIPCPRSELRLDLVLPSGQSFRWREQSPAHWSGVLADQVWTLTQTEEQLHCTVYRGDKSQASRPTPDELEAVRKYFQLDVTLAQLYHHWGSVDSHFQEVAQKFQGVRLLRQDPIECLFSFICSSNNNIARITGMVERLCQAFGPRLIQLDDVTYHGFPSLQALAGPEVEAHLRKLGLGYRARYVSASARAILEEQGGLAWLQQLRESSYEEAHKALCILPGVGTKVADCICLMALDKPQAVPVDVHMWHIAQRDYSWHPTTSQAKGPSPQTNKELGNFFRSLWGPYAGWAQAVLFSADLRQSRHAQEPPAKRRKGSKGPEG
Description: Inhibition of OGG1 by quantifying inhibition of OGG1-mediated cleavage and dissociation of quenched duplex DNA oligonucleotides, measured as fluorescence at 594 nm. To generate a functional strand incision and increase turn-over this assay is coupled to APE1.

Endonuclease 8-like 1 (Homo sapiens), sequence (Q96FI4 whole entry): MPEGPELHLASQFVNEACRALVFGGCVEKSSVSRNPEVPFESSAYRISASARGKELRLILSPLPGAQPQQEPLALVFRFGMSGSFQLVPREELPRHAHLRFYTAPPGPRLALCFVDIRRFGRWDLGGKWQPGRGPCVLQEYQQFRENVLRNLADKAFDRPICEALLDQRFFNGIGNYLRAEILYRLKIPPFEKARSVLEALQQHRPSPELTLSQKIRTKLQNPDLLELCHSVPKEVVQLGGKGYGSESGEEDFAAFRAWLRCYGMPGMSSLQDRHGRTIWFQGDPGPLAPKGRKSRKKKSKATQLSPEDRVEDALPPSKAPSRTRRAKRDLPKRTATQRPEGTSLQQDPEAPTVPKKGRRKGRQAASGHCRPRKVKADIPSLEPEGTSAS
Methyl-CpG-binding domain protein 4 (Homo sapiens), sequence (O95243 whole entry, the tested form may be a part): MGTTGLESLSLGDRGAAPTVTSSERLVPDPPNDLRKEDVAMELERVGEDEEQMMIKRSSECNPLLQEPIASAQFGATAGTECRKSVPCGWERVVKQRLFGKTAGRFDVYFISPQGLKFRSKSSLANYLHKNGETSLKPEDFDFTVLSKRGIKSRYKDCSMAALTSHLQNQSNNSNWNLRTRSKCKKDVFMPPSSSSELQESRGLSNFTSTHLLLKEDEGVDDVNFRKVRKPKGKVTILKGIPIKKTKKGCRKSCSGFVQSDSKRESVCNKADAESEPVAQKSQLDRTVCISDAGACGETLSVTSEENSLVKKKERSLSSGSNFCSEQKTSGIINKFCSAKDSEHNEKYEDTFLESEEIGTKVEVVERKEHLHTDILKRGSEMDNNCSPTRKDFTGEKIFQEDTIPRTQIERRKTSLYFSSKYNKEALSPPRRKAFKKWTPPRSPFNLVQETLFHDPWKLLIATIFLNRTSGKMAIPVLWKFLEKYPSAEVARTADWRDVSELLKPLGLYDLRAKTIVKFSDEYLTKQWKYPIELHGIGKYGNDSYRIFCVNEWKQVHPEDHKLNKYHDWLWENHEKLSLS
G/T mismatch-specific thymine DNA glycosylase (Homo sapiens), sequence (Q13569 whole entry): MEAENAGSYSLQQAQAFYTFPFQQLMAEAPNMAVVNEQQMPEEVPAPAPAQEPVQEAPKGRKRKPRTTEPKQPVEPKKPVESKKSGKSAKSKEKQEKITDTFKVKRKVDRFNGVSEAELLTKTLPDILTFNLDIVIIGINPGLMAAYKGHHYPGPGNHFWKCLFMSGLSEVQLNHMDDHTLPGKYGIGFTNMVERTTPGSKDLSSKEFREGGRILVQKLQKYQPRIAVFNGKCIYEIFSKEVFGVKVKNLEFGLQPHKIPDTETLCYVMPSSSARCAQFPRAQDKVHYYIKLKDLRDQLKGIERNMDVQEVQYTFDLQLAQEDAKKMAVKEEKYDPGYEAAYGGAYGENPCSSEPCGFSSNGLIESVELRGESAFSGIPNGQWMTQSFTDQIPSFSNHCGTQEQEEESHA
DNA-3-methyladenine glycosylase (Homo sapiens), sequence (P29372 whole entry): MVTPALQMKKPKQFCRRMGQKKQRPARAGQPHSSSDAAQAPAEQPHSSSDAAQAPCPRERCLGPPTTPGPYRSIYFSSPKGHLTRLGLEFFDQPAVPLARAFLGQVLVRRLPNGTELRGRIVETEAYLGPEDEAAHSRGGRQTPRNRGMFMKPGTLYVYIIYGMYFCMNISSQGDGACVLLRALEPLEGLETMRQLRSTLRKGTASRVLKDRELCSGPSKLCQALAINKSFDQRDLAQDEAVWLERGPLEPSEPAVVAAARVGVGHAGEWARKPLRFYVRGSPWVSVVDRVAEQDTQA
Uracil-DNA glycosylase (Homo sapiens), sequence (P13051 whole entry, the tested form may be a part): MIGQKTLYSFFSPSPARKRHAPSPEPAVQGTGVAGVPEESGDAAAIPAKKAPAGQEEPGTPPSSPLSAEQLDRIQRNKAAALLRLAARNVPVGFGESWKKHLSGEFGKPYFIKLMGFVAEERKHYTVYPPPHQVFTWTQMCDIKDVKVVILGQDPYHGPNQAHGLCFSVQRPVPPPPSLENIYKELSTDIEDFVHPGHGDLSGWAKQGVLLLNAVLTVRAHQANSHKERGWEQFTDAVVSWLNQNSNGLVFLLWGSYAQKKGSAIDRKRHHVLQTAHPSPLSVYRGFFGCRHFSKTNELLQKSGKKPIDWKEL

Structure (SMILES)	inhibition [1]	inhibition [2]	inhibition [3]	inhibition [4]	inhibition [5]	inhibition [6]	inhibition [7]	inhibition ([8]; Hit No)	inhibition [9]	inhibition ([8]; Hit Yes)	inhibition [10]
N[C@@]1(C(=O)O)CC[C@H]2[C@H](C(=O)O)[C@H]21	-1.43%	27.8%	4.77%	2.53%	-1.37%	5.05%	-8.38%	2.62%	13.1%	–	–
Cc1c(F)cccc1[C@H]1COC(N)=N1	12.2%	14.6%	32.1%	-8.55%	-0.86%	11.3%	-1.2%	5.02%	11.7%	–	–
CCCCC[C@H](O)/C=C/[C@@H]1[C@@H](C/C=C\CCCC(=O)O)[C@@H](O)C[C@H]1O	-6.92%	7.79%	-4.2%	8.11%	0.515%	7.21%	-8.4%	-2.06%	25.5%	–	–
CC(C)(O)c1cnc(N2C[C@@]3(CCC[C@](C)(Cn4cnc5ccc(C#N)cc54)C3)OC2=O)cn1	10.5%	8%	47.1%	2.98%	5.76%	1.2%	-2.44%	9.84%	6.22%	–	–
C=CC(=O)Nc1cccc(C(=O)Nc2ccc(Nc3cc(-c4[nH]c(S)nc4C)ccn3)cc2)c1	19.6%	-6.89%	61%	16.9%	8.04%	5.55%	3.19%	23.5%	102%	–	–
NCCc1cccs1	-5.51%	8.82%	-1.84%	-0.24%	9.33%	7.57%	-3.89%	2.05%	6.37%	–	–
CCNC(=O)[C@H]1O[C@@H](n2cnc3c(N)ncnc32)[C@H](O)[C@@H]1O	-3.56%	17.9%	-3.4%	-5.33%	–	3.86%	-2.94%	-0.442%	-4.15%	–	–
CC(C)(C)c1ccc(NC(=O)N2CCN(c3ncccc3Cl)CC2)cc1	9.36%	21.2%	-0.729%	-0.579%	–	-1.77%	-5.92%	8.84%	11%	–	–
Brc1c(NC2=NCCN2)ccc2nccnc12	-8.07%	-4.67%	-8.17%	-5.99%	6.5%	-5.69%	–	–	1.79%	140%	–
C[C@@H](C(N)=O)[C@H](N)c1nc2ccc(C(C)(C)C)cc2[nH]1	2.09%	12.9%	0.595%	-0.466%	–	0.158%	-4.85%	10.2%	6.56%	–	–
COC1(C[S@@+]([O-])c2ccccc2)CCN(CCc2c[nH]c3ccc(F)cc23)CC1	-3.99%	17.1%	-7.4%	-8.49%	–	5.2%	-4%	2.25%	6.29%	–	–
CC(C)(O)c1ccc2c(c1)ncn2-c1cccc(-c2ccccc2C#N)c1	3.49%	12.1%	-2.7%	1%	–	-1.62%	-7.68%	26.4%	-5.39%	–	–
CC(C)C[C@H](NC(=O)[C@H](CC(N)=O)NC(=O)[C@@H]1CCCN1C(=O)[C@@H](N)C(C)C)C(=O)N1CCC[C@H]1C(=O)N[C@@H](CCC(N)=O)C(=O)N[C@@H](CCCNC(=N)N)C(=O)N[C@@H](Cc1ccccc1)C(N)=O	2.54%	17.1%	-3.17%	–	4.75%	5.49%	-4.09%	7.14%	4.58%	–	-4.66%
